Assay results published in PubChem BioAssay (NCI).
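Where inhibition never reached the appropriate level, the endpoint shown equals the highest concentration tested. Otherwise, values were interpolated linearly from a five-concentration, 48-hour dose response in 96-well plates. Here, GI50 denotes the concentration required for 50% inhibition of growth. Definition used: TGI = concentration required for complete inhibition of growth.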

Columns and labels:
Assay in all cases: NCI-60 cell line screen, 48 h
MCF7 breast = test system: MCF7 breast
HOP-92 NSCLC = test system: HOP-92 NSCLC
SK-MEL-28 melanoma = test system: SK-MEL-28 melanoma
UACC-62 melanoma = test system: UACC-62 melanoma
SN12C renal = test system: SN12C renal
BT-549 breast = test system: BT-549 breast
MALME-3M melanoma = test system: MALME-3M melanoma
OVCAR-4 ovarian = test system: OVCAR-4 ovarian
SK-MEL-5 melanoma = test system: SK-MEL-5 melanoma
HL-60(TB) leukemia = test system: HL-60(TB) leukemia
UACC-257 melanoma = test system: UACC-257 melanoma
T-47D breast = test system: T-47D breast
OVCAR-5 ovarian = test system: OVCAR-5 ovarian
M14 melanoma = test system: M14 melanoma
HT29 colon = test system: HT29 colon
OVCAR-3 ovarian = test system: OVCAR-3 ovarian
ACHN renal = test system: ACHN renal
SK-MEL-2 melanoma = test system: SK-MEL-2 melanoma
SF-268 CNS = test system: SF-268 CNS
SW-620 colon = test system: SW-620 colon
A498 renal = test system: A498 renal
SNB-19 CNS = test system: SNB-19 CNS
HCT-116 colon = test system: HCT-116 colon
786-0 renal = test system: 786-0 renal
NCI-H23 lung = test system: NCI-H23 lung
COLO 205 colon = test system: COLO 205 colon
HOP-62 NSCLC = test system: HOP-62 NSCLC
U251 CNS = test system: U251 CNS
MOLT-4 leukemia = test system: MOLT-4 leukemia
HS 578T breast = test system: HS 578T breast
OVCAR-8 ovarian = test system: OVCAR-8 ovarian
IGROV1 ovarian = test system: IGROV1 ovarian
NCI-H522 lung = test system: NCI-H522 lung
SK-OV-3 ovarian = test system: SK-OV-3 ovarian
MDA-MB-231 breast = test system: MDA-MB-231 breast
SR leukemia = test system: SR leukemia
LOX IMVI melanoma = test system: LOX IMVI melanoma
HCT-15 colon = test system: HCT-15 colon
UO-31 renal = test system: UO-31 renal
RPMI-8226 leukemia = test system: RPMI-8226 leukemia
A549 NSCLC = test system: A549 NSCLC
MDA-MB-435 = test system: MDA-MB-435
RXF 393 renal = test system: RXF 393 renal
SF-539 CNS = test system: SF-539 CNS
NCI-H460 lung = test system: NCI-H460 lung
NCI/ADR-RES ovarian = test system: NCI/ADR-RES ovarian
K-562 leukemia = test system: K-562 leukemia
CAKI-1 renal = test system: CAKI-1 renal
HCC-2998 colon = test system: HCC-2998 colon
KM12 colon = test system: KM12 colon
PC-3 prostate = test system: PC-3 prostate
TK-10 renal = test system: TK-10 renal
DU-145 prostate = test system: DU-145 prostate
NCI-H226 lung = test system: NCI-H226 lung
SNB-75 CNS = test system: SNB-75 CNS
SF-295 CNS = test system: SF-295 CNS
CCRF-CEM leukemia = test system: CCRF-CEM leukemia
EKVX NSCLC = test system: EKVX NSCLC

COc1cc(C(=O)/C=C/c2cc(-c3cc(OC)c(OC)c(OC)c3)n[nH]2)cc(OC)c1OC
GI50 (MCF7 breast): 0.646 µM
TGI (MCF7 breast): 2.07 µM
GI50 (HOP-92 NSCLC): 0.186 µM
TGI (HOP-92 NSCLC): 1.02 µM
GI50 (SK-MEL-28 melanoma): 1.82 µM
TGI (SK-MEL-28 melanoma): 3.33 µM
GI50 (UACC-62 melanoma): 1.78 µM
TGI (UACC-62 melanoma): 3.68 µM
GI50 (SN12C renal): 1.47 µM
TGI (SN12C renal): 2.97 µM
GI50 (BT-549 breast): 1.57 µM
TGI (BT-549 breast): 2.96 µM
GI50 (MALME-3M melanoma): 1.86 µM
TGI (MALME-3M melanoma): 4.09 µM
GI50 (OVCAR-4 ovarian): 1.45 µM
TGI (OVCAR-4 ovarian): 2.76 µM
GI50 (SK-MEL-5 melanoma): 1.57 µM
TGI (SK-MEL-5 melanoma): 2.94 µM
GI50 (HL-60(TB) leukemia): 1.93 µM
TGI (HL-60(TB) leukemia): 5.52 µM
GI50 (UACC-257 melanoma): 1.57 µM
TGI (UACC-257 melanoma): 2.99 µM
GI50 (T-47D breast): 1.13 µM
TGI (T-47D breast): 2.57 µM
GI50 (OVCAR-5 ovarian): 1.64 µM
TGI (OVCAR-5 ovarian): 3.12 µM
GI50 (M14 melanoma): 1.79 µM
TGI (M14 melanoma): 3.32 µM
GI50 (HT29 colon): 1.79 µM
TGI (HT29 colon): 3.37 µM
GI50 (OVCAR-3 ovarian): 1.75 µM
TGI (OVCAR-3 ovarian): 3.18 µM
GI50 (ACHN renal): 1.62 µM
TGI (ACHN renal): 3.01 µM
GI50 (SK-MEL-2 melanoma): 1.96 µM
TGI (SK-MEL-2 melanoma): 4.04 µM
GI50 (SF-268 CNS): 1.94 µM
TGI (SF-268 CNS): 4.58 µM
GI50 (SW-620 colon): 1.59 µM
TGI (SW-620 colon): 3.08 µM
GI50 (A498 renal): 1.61 µM
TGI (A498 renal): 3.59 µM
GI50 (SNB-19 CNS): 1.66 µM
TGI (SNB-19 CNS): 3.69 µM
GI50 (HCT-116 colon): 1.31 µM
TGI (HCT-116 colon): 2.59 µM
GI50 (786-0 renal): 1.56 µM
TGI (786-0 renal): 3.25 µM
GI50 (NCI-H23 lung): 3.04 µM
TGI (NCI-H23 lung): 9.9 µM
GI50 (COLO 205 colon): 1.75 µM
TGI (COLO 205 colon): 3.13 µM
GI50 (HOP-62 NSCLC): 1.46 µM
TGI (HOP-62 NSCLC): 2.89 µM
GI50 (U251 CNS): 1.54 µM
TGI (U251 CNS): 2.96 µM
GI50 (MOLT-4 leukemia): 2.32 µM
TGI (MOLT-4 leukemia): 8.95 µM
GI50 (HS 578T breast): 2.68 µM
TGI (HS 578T breast): 53.9 µM
GI50 (OVCAR-8 ovarian): 1.58 µM
TGI (OVCAR-8 ovarian): 3.28 µM
GI50 (IGROV1 ovarian): 3.14 µM
TGI (IGROV1 ovarian): 10.2 µM
GI50 (NCI-H522 lung): 0.521 µM
TGI (NCI-H522 lung): 1.7 µM
GI50 (SK-OV-3 ovarian): 3.2 µM
TGI (SK-OV-3 ovarian): 11.1 µM
GI50 (MDA-MB-231 breast): 1.52 µM
TGI (MDA-MB-231 breast): 3.8 µM
GI50 (SR leukemia): 0.398 µM
TGI (SR leukemia): > 100 µM
GI50 (LOX IMVI melanoma): 1.52 µM
TGI (LOX IMVI melanoma): 2.91 µM
GI50 (HCT-15 colon): 1.5 µM
TGI (HCT-15 colon): 3.29 µM
GI50 (UO-31 renal): 1.19 µM
TGI (UO-31 renal): 2.48 µM
GI50 (RPMI-8226 leukemia): 0.318 µM
TGI (RPMI-8226 leukemia): 2.06 µM
GI50 (A549 NSCLC): 2.72 µM
TGI (A549 NSCLC): 12.1 µM
GI50 (MDA-MB-435): 1.49 µM
TGI (MDA-MB-435): 2.95 µM
GI50 (RXF 393 renal): 1.26 µM
TGI (RXF 393 renal): 2.67 µM
GI50 (SF-539 CNS): 1.29 µM
TGI (SF-539 CNS): 2.83 µM
GI50 (NCI-H460 lung): 1.89 µM
TGI (NCI-H460 lung): 4.33 µM
GI50 (NCI/ADR-RES ovarian): 3.47 µM
TGI (NCI/ADR-RES ovarian): 21.4 µM
GI50 (K-562 leukemia): 2.96 µM
TGI (K-562 leukemia): > 100 µM
GI50 (CAKI-1 renal): 2.58 µM
TGI (CAKI-1 renal): 10.9 µM
GI50 (HCC-2998 colon): 1.83 µM
TGI (HCC-2998 colon): 3.39 µM
GI50 (KM12 colon): 1.49 µM
TGI (KM12 colon): 2.93 µM
GI50 (PC-3 prostate): 1.47 µM
TGI (PC-3 prostate): 3.29 µM
GI50 (TK-10 renal): 1.46 µM
TGI (TK-10 renal): 2.8 µM

C=C1C[C@H](O)[C@H]2C(C[Se]c3ccccc3)C(=O)O[C@@H]2[C@H]2[C@H](C)C(O)C[C@@H]12 (some centres undefined)
TGI (MCF7 breast): > 100 µM
TGI (HOP-92 NSCLC): > 100 µM
TGI (SK-MEL-28 melanoma): > 100 µM
TGI (UACC-62 melanoma): 64.1 µM
TGI (SN12C renal): 65 µM
TGI (BT-549 breast): 98.4 µM
TGI (MALME-3M melanoma): > 100 µM
TGI (OVCAR-4 ovarian): > 100 µM
TGI (SK-MEL-5 melanoma): > 100 µM
TGI (UACC-257 melanoma): > 100 µM
TGI (T-47D breast): > 100 µM
TGI (OVCAR-5 ovarian): 55 µM
TGI (M14 melanoma): > 100 µM
TGI (HT29 colon): > 100 µM
TGI (OVCAR-3 ovarian): 98.6 µM
TGI (ACHN renal): 76.3 µM
TGI (SK-MEL-2 melanoma): > 100 µM
TGI (SF-268 CNS): > 100 µM
TGI (SW-620 colon): 94.8 µM
TGI (SNB-19 CNS): > 100 µM
TGI (HCT-116 colon): 56.4 µM
TGI (786-0 renal): 99.3 µM
TGI (NCI-H23 lung): 40.7 µM
TGI (COLO 205 colon): > 100 µM
TGI (HOP-62 NSCLC): > 100 µM
TGI (U251 CNS): 30.8 µM
TGI (MOLT-4 leukemia): > 100 µM
TGI (HS 578T breast): > 100 µM
TGI (DU-145 prostate): > 100 µM
TGI (OVCAR-8 ovarian): > 100 µM
TGI (IGROV1 ovarian): 93.1 µM
TGI (NCI-H522 lung): 38.1 µM
TGI (SK-OV-3 ovarian): > 100 µM
TGI (NCI-H226 lung): 83.9 µM
TGI (MDA-MB-231 breast): 38.1 µM
TGI (SR leukemia): > 100 µM
TGI (LOX IMVI melanoma): 51.4 µM
TGI (HCT-15 colon): 33.9 µM
TGI (SNB-75 CNS): > 100 µM
TGI (UO-31 renal): 63.7 µM
TGI (RPMI-8226 leukemia): 98 µM
TGI (A549 NSCLC): > 100 µM
TGI (MDA-MB-435): > 100 µM
TGI (SF-295 CNS): > 100 µM
TGI (RXF 393 renal): 50.2 µM
TGI (SF-539 CNS): > 100 µM
TGI (NCI-H460 lung): > 100 µM
TGI (NCI/ADR-RES ovarian): 51.6 µM
TGI (K-562 leukemia): > 100 µM
TGI (CCRF-CEM leukemia): > 100 µM
TGI (CAKI-1 renal): > 100 µM
TGI (EKVX NSCLC): > 100 µM
TGI (KM12 colon): > 100 µM
TGI (PC-3 prostate): > 100 µM
TGI (TK-10 renal): > 100 µM
